Legend:
Format in all cases: in vivo
[1] = test system: Eurasian watermilfoil (EWM); assay: Root and shoot dry weights of Eurasian watermilfoil after 40 d exposure to triclopyr and fluridone, 12 L tanks (Example 2); conditions: triclopyr 75 ppb alone
Excerpt: Apical sections (12 to 15 cm in length) of Eurasian watennilfoil (EWM) were planted into small pots (13.5 cm length×3.75 cm diameter) containing Wallace Farm® topsoil amended with 14-14-14 slow release Osmocote® fertilizer (˜2.5 g Osmocote/kg soil). Approximately 5 to 7 cm of the apical section extended above the sediment at planting, and a sand cap was placed over the potting soil (˜2 cm deep). Plants were then transferred to a 12 L acrylic tanks filled with well water. Plants were allowed to grow for 7 d before the following treatments were initiated in triple replicate: 1) fluridone at 10 ppb, 2) triclopyr at 75 ppb, 3) fluridone (10 ppb) plus triclopyr (75 ppb), 4) untreated controls. Plants were harvested at 40 d. At harvest, plants were rinsed free of algae, roots and shoots were separated, and placed in paper sacks in a drying oven for 4 d at 70° C. temperature, and dry weights were determined (FIG. 2.1).

[2] = test system: Eurasian watermilfoil (EWM); assay: Root and shoot dry weights of Eurasian watermilfoil after treatment with triclopyr, 2,4-d, diquat alone and in combination, harvest at 32 d (Example 3); conditions: single herbicide at 50 ppb, vs untreated controls
Excerpt: Apical sections (12 to 15 cm in length) of Eurasian watermilfoil (EWM) were planted into small pots (13.5 cm length×3.75 cm diameter) containing Wallace Farm® (topsoil amended with 14-14-14 slow release Osmocote® fertilizer (˜2.5 g Osmocote/kg soil). Approximately 5 to 7 cm of the apical section extended above the sediment at planting, and a sand cap was placed over the potting soil (˜2 cm deep). Plants were then transferred to a 12 L acrylic tanks filled with well water. Plants were allowed to grow to two-thirds the height of tanks (approximately 7 d) before the following treatment was initiated in triple replicate: 1) Untreated controls, 2) triclopyr 50 ppb, 3) 2,4-d 50 ppb, 4) diquat 50 ppb, 5) diquat 50 ppb+triclopyr 50 ppb, 6) diquat 50 ppb+2,4-d 50 ppb. Plants were harvested at 32 d. At harvest, plants were rinsed free of algae, roots and shoots were separated, and placed in paper sacks in a drying oven for 4 d at 70° C. temperature, and dry weights were determined (FIG. 3.1).

[3] = test system: Eurasian watermilfoil (EWM); assay: GR50 and Isobole analysis of triclopyr and 2,4-d alone and in combination, above ground biomass 33 days after treatment (Example 4); conditions: total herbicide concentration, regression of 30-120 ppb treatments, n=3
Excerpt: Eurasian watermilfoil (EWM) was collected from ponds in Seymour, Ind. Single apical meristems were planted into small pots (13.5 cm length×3.75 cm diameter) containing Wallace Farm® (topsoil amended with 14-14-14 slow release Osmocote® fertilizer (˜2.5 g Osmocote/kg soil). Approximately 5 to 7 cm of the apical section extended above the sediment at planting, and a sand cap was placed over the potting soil (˜2 cm deep). Plants were then transferred to a 12 L acrylic tanks filled with well water. Tanks were maintained in a growth room with 14:10 h photoperiod at 26° C. Plants were allowed to establish growth for 26 days before they were treated.
Pretreatment above ground biomass was harvested the day of the treatment and dry weights were determined. Treatments were replicated three times in a completely randomized design. […]
All above ground biomass was harvested 33 days after treatment. Biomass was dried to constant moisture at 70° C. for 3 d, and dry weights were determined. Data were subjected to regression analysis using Sigma Plot software, and a GR50 was determined (concentration causing a 50% reduction in dry weight) for each treatment. […]

SMILES	reduction of below ground biomass ([1]; root dry weight)	reduction of above ground biomass ([1]; shoot dry weight)	reduction in root biomass [2]	GR50 (concentration causing a 50% reduction in dry weight) [3]
O=C(O)COc1nc(Cl)c(Cl)cc1Cl [triclopyr, 3,5,6-trichloro-2-pyridyloxyacetic acid]	74%	96%	90%	63.0 ppb
O=C(O)COc1ccc(Cl)cc1Cl [2,4-d, (2,4-dichlorophenoxy) acetic acid]	–	–	66%	162.6 ppb
c1cc[n+]2c(c1)-c1cccc[n+]1CC2 [diquat, 1,1′-ethylene 2,2′-dipyridylium dibromide]	–	–	86%	–
